In article PMC10458596, “Synthesis, In Silico Logp Study, and In Vitro Analgesic Activity of Analogs of Tetrapeptide FELL” (Pharmaceuticals, 2023):
Residues, ends and D or L forms follow the SMILES beside them.

Columns and labels:
[1] = system: male Wistar rats; experiment: Paw-pressure test (Randall-Selitto test), PPT; format: in vivo, rat; conditions: for Analgesic activity (PPT) over time: 0.25 mg/kg i.p. in saline, measured every 10 min from 10th to 50th min, n = 8-10 per group, PPT in AU, mean ± S.E.M. (Figure 2)
Experimental: (§1) The experiments were carried out on male Wistar rats (180–200 g) kept under normal conditions at ambient room temperature (22 °C). The animals were divided into five experimental groups, each including 8–10 animals, and a control group (n = 10). All experimental procedures were carried out between 10:00 a.m. and 1:00 p.m. after having been approved by the Research Ethics Commission of the Medical University—Sofia.
(§2) The control group received 0.2 mL of saline intraperitoneally injected (i.p.), while the animals from each one of the experimental groups received 0.2 mL (0.25 mg/kg, i.p.) of one of the five newly synthesized analogs dissolved in saline.
(§3) Changes in the mechanical nociceptive thresholds (PPT) of experimental animals were measured by an analgesimeter. Pressure was applied to the hind paw, and the value (g) required to elicit a nociceptive response (i.e., a squeak or struggle) was taken as the mechanical nociceptive threshold. A cut-off value of 500 g was used to prevent damage to the paw.
(§4) Nociception was evaluated every 10 min from the 10th minute after the newly synthesized analog was administered until the 50th minute.
The results were statistically assessed by one-way analysis of variance followed by a Newman-Keuls post-hoc comparison test. Values are represented as mean ± S.E.M. Values of p < 0.05 were considered to indicate statistical significance.

[2] = system: male Wistar rats; experiment: Paw-pressure test after Naloxone or AM251 pretreatment; format: in vivo, rat; conditions: 10th to 50th min (Figure 3); for Analgesia (PPT) after AM251 pretreatment: peptide i.p. after AM251 (CB1R antagonist) pretreatment; for Analgesia (PPT) after Naloxone pretreatment: peptide i.p. after Naloxone (MOR antagonist) pretreatment
Experimental: as §1, §2, §3, §4
In order to estimate which type of receptor participates in the analgesic effects of the newly synthesized substances, pretreatments have been made with Naloxone—an antagonist with a high binding affinity for the MORs, clinically used to prevent fatal overdose consequences—and AM251—a CB1Rs’ antagonist.

[3] = system: white blood cells (WBC), especially neutrophils and macrophages, in bronchoalveolar fluid (BALF); parameters: method as in PMID 25632019; conditions: cited from earlier work

Molecule | Analgesic activity (PPT) over time [1] | Reduction of total number of white blood cells and their accumulation in BALF in the lungs [3] | further results
CC(C)C[C@H](NC(=O)[C@H](CC(C)C)NC(=O)[C@H](CCC(=O)O)NC(=O)[C@@H](N)Cc1ccccc1)C(N)=O [BB1, H-Phe-Glu-Leu-Leu-NH2] (H-FELL-NH2) | gradually increasing analgesic activity over time | – | Analgesic activity (PPT) vs parent compound BB11 at the end of the reported period ([1]; 0.25 mg/kg i.p., 50th min, F = 5.38217, p = 0.042776): exceeded that of the parent compound BB11; Analgesia (PPT) after AM251 pretreatment [2]: completely abolished the analgesia; Analgesia (PPT) after Naloxone pretreatment [2]: completely abolished the analgesia
CCCC[C@H](NC(=O)[C@H](CCCC)NC(=O)[C@H](CCC(=O)O)NC(=O)[C@@H](N)Cc1ccccc1)C(N)=O [BB2, H-Phe-Glu-Nle-Nle-NH2] (HELM PEPTIDE1{F.E.[Nle].[Nle].[am]}$$$$V2.0) | fluctuating analgesia that did not reach the values of the parent compound | – | –
CC(C)[C@H](NC(=O)[C@@H](NC(=O)[C@H](CCC(=O)O)NC(=O)[C@@H](N)Cc1ccccc1)C(C)C)C(N)=O [BB3, H-Phe-Glu-Val-Val-NH2] (H-FEVV-NH2) | highest but short-lasting analgesic activity | – | Analgesic activity (PPT) vs BB11 at the 10th minute ([1]; 0.25 mg/kg i.p., 10th min, F = 92.35602, p < 0.00001): exceeded that of BB11
CC(C)C[C@H](NC(=O)[C@H](CC(C)C)NC(=O)[C@H](CCC(=O)O)NC(=O)[C@@H](N)Cc1ccccc1)C(=O)O [BB11, H-Phe-Glu-Leu-Leu-OH, reference compound] (H-FELL-OH) | constantly increased PPT for the total time of the evaluation | 51% | Analgesia (PPT) after AM251 pretreatment [2]: completely abolished the analgesia; Analgesia (PPT) after Naloxone pretreatment [2]: completely abolished the analgesia
H-Phe-Glu-Ile-Ile-NH2 [BB4, FELL analog with Ile at positions 3 and 4, C-terminal amide] | fluctuating analgesia that did not reach the values of the parent compound | – | –
TDIFELL | – | 54% | –
TDIFELLK | – | 57% | –
